In patent US20040219106A1, “Compounds for use as surfactants” (priority 2001, published 2004):

Tests used:
Type in all cases: physicochemical
[1] = Particle size of salmeterol xinafoate HFA 134a suspension by image analysis (Galai CIS-100)
Description: (§1) Salmeterol xinafoate formulations in HFA 134a (1,1,1,2-tetrafluoroethane), of strength 25 μg per actuation, and 10% w/w (relative to drug) of the surfactant compound of Example 1 (Bis(4,4,5,5,5-pentafluopentanoyl)phosphatidylcholine) were prepared using salmeterol xinafoate (5.8 mg), HFA 134a (12 g) and the relevant compound (0.58 mg). The control was prepared without the addition of a surfactant.
In this measurement, particle size is represented as the equivalent diameter of a circle of equal area to the object. The mean is the average of 4 determinations. The particle size measurement was obtained by transferring the suspensions to a presurised cell, and video-imaging the sample under shear via a microscope objective.
The equivalent diameter is defined as the diameter of a circle of equal area to the object. [formula]
The mean equivalent diameter can be weighted by number, length or volume. e.g. For three particles with equivalent diameters of x, y and z: [formula]

[2] = Content uniformity by dose through use testing; conditions: for BuO dose: actuations 1+2, mean of 10 inhalers; for EuO dose: actuations 119+120, mean of 10 inhalers
Description: as §1
The content uniformity of the formulation, the preparation of which is described above, was assessed by dose through use testing. Testing was performed on 10 cans/inhalers at “beginning of use” (BoU) and “end of use” (EoU). After each inhaler had been primed (4 shots fired to waste), actuations 1 and 2 (BoU) were collected. The next 116 actuations of each inhaler were then fired to waste using an automated method and actuations 119 and 120 (EoU) collected.
Assesment of content uniformity was performed intially (following sample preparation) and then on a further 10 inhalers for each timepoint, 8 weeks and 3 months, which were stored at 40° C./75% RH. Mean results from the two BoU actuations (1+2 for 10 inhalers) and the two EoU actuations (119+120 for same 10 inhalers) at each timepoint together with the percentage relative standard deviation (% RSD) for the 10 cans are shown in Table 3.

[3] = Andersen Cascade Impaction of salmeterol xinafoate HFA 134a formulation; conditions: for % FPM (FPM as percentage of total dose emitted ex-valve) / FPM (fine particle mass, sum of stages 3-5) / Total Dose Emitted (Ex-Actuator) / Total Dose Emitted (Ex-Valve): BoU, mean of 3 cans/inhalers
Description: as §1
The formulation, the preparation of which is described above, was profiled using an Andersen Cascade Impactor. Ten actuations at “beginning of use” (BoU) were collected in the impactor from an inhaler after 4 priming actuations were fired to waste. The drug delivered was then quantified by HPLC analysis. Testing was performed intially (following sample preparation) and then after inhalers had been stored at 40° C./75% RH for 8 weeks and for 3 months. The results, at each timepoint, in Table 2 are shown as the mean analysis of 3 cans/inhalers.
The profile obtained was used to determine total dose emitted dose (ex-valve and ex-actuator) and the fine particle mass (FPM, defined as the sum of stages 3-5). The percentage fine particle mass expresses the FPM as a percentage of the total dose emitted (ex-valve). The FPM is used as a measure of the proportion of the drug likely to reach the therapeutic target in the lungs.

[4] = in the presence of the surfactant

For `C[N+](C)(C)CCOP(=O)([O-])OC[C@@H](COC(=O)CCC(F)(F)C(F)(F)F)OC(=O)CCC(F)(F)C(F)(F)F` [Example 1, Bis(4,4,5,5,5-pentafluopentanoyl)phosphatidylcholine], the “change in average particle size (mean length weighted diameter) versus control” value ([1]; compound incorporated into the formulation) was “marked reduction”, the “Mean Length weighted diameter” value ([1]; salmeterol xinafoate 25 μg per actuation in HFA 134a, 10% w/w surfactant relative to drug, average of 4 determinations) was 13.3 μm and the “suspension stabilising properties (discouraging flocculation of drug particles)” value ([1]; salmeterol xinafoate in HFA 134a, 10% w/w surfactant) was “suspension stabilising properties”. It also gave a BuO dose ([2]; 3 Month at 40° C./75% RH) of 19.7 µg, an EuO dose ([2]; 3 Month at 40° C./75% RH) of 22.6 µg and a BuO dose ([2]; 8 Week at 40° C./75% RH) of 20.3 µg. For the same molecule, the EuO dose ([2]; 8 Week at 40° C./75% RH) was 24.2 µg, the “change in percentage RSD at EoU versus control (can to can reproducibility)” value ([2]; 10 inhalers tested) was “reduction” and the BuO dose ([2]; Initial) was 19.6 µg. The EuO dose ([2]; Initial) was 23.3 µg, the “% FPM (FPM as percentage of total dose emitted ex-valve)” value ([3]; 3 month at 40° C./75% RH) was 42.5% and the “FPM (fine particle mass, sum of stages 3-5)” value ([3]; 3 month at 40° C./75% RH) was 10.4 µg. For the same molecule, the “Total Dose Emitted (Ex-Actuator)” value ([3]; 3 month at 40° C./75% RH) was 20.1 µg, the “Total Dose Emitted (Ex-Valve)” value ([3]; 3 month at 40° C./75% RH) was 24.4 µg and the “% FPM (FPM as percentage of total dose emitted ex-valve)” value ([3]; 8 week at 40° C./75% RH) was 44.2%. The “FPM (fine particle mass, sum of stages 3-5)” value ([3]; 8 week at 40° C./75% RH) was 10.4 µg, the “Total Dose Emitted (Ex-Actuator)” value ([3]; 8 week at 40° C./75% RH) was 19.5 µg and the “Total Dose Emitted (Ex-Valve)” value ([3]; 8 week at 40° C./75% RH) was 23.5 µg. The “% FPM (FPM as percentage of total dose emitted ex-valve)” value ([3]; Initial) was 47.7%, the “FPM (fine particle mass, sum of stages 3-5)” value ([3]; Initial) was 11.1 µg and the “Total Dose Emitted (Ex-Actuator)” value ([3]; Initial) was 20.0 µg. The “Total Dose Emitted (Ex-Valve)” value ([3]; Initial, 10% w/w surfactant) was 23.3 µg, the “change in absolute FPM versus control” value [3, 4] was “increase” and the “change in absolute doses emitted versus control” value [3, 4] was “increase”. For the same molecule, the “change in percentage FPM versus control” value [3, 4] was “significant increase”.
